In patent publication US20240365779A1, “POLLEN PRESERVATION COMPOSITIONS” (PowerPollen, Inc., priority 2017, published 2024):
“Also recorded” adds a separate entry of the source. One block for each compound: values may come before it.

Tests used:
maize pollen [1] = test: Maize pollen viability by Amphasys impedance flow cytometry after storage with a substance; format: cell-based; conditions: 1:1 volume pollen to sugar, 4° C.
Protocol: In initial experiments considering different types separation compounds to use for pollen storage, experiments were conducted using activated charcoal as a separator. Field pollen was hand collected from various maize genotypes, and temporarily stored in 50 ml conical tubes, at 5° C. T0 Amphasys was conducted along with pollen moisture content (PMC) determination of the unmixed control pollen. Amphasys provides a reliable determination of pollen viability using an impedance flow cytometer, which measures the electrical properties of pollen grains. Viability at T0 was 97% with a PMC of 57% using the standard overnight oven method. The pollen was mixed with charcoal powder (activated charcoal) at various percentages. Activated charcoal is often used to absorb toxic substances. Mixed samples were then stored at 5° C., in uncapped 50 mL tubes. Timepoint data was collected at days 1 and 6, using Amphasys when the concentration of charcoal would allow. Small quantities of sample were suspended in Ampha 6 media and then filtered with a 150 μm filter to remove any large particles that might affect the fluidics on the Amphasys. […] Used in lower quantities, 2.5-25% in this case, viability remained as high as 92% at 6 days storage.
In continued efforts to test different substances for the purposes of pollen grain separation, an experiment was conducted with a series of different saccharides to determine efficacy for pollen grain separation and preservation. Mixed pollen was collected from various actively-shedding maize plants grown in the greenhouse. Hand collection was done with a funnel and screen to remove anthers. The bulk pollen sample was divided into four equal portions, each of which was approximately 5 mL in volume. Each sample of pollen was stored in a capped 50 mL conical tube at 5° C. overnight and its viability was tested using Amphasys roughly 24 hours after collection. A 1:1 volume ratio of one of three different types of sugars was added to each tube so that the amount of sugar was equal to the amount of pollen in each tube. […]

wheat pollen = test: Wheat pollen viability by Amphasys after anther storage; format: cell-based
Protocol: In order to determine whether the method of maintaining pollen separation was effective in other plant species, experiments were conducted with wheat. Wheat heads of Grandin wheat variety were collected at early emergence stage and post-emergence stage. At the post emergence stage, a few anthers were exposed on the wheat heads. The anthers were collected from a subsample of the heads and the collected anthers were ground with a nylon pestle in 1.5 mL of Ampha 6 media, filtered, and run through the Amphasys system to measure T0 viability. Amphasys provides a reliable determination of pollen viability using an impedance flow cytometer, which measures the electrical properties of pollen grains.
A second subsample of the early emergence stage and post-emergence wheat heads were taken from different regions of each head. These samples were stored whole at 5° C. in cryo vials. The samples in the vials had either no storage medium, lactose particulate storage medium, or lactose (Lab grade D-lactose monohydrate, RPI #L26100-1000.0) combined with 2% Sipernat® 340 storage medium. After storage for either 3 or 14 days, pollen was extracted from the stored anthers using the nylon pestle, and viability was determined using Amphasys.

rice pollen = test: Rice pollen viability by Amphasys after anther storage; format: cell-based
Protocol: Another experiment was conducted to test the efficacy of maintaining separation of pollen grains in rice. Rice anthers were collected from a pool of cut back glumes. One sample of the anthers was ground with a nylon pestle in 1.5 mL of Ampha 6 media, filtered, and run through the Amphasys system to measure T0 viability. Amphasys provides a reliable determination of pollen viability using an impedance flow cytometer, which measures the electrical properties of pollen grains.
A second subsample of the anthers was divided into three groups that were stored whole at 5° C. in cryo vials. […]. The samples in the vials had either no storage medium, lactose particulate storage medium, or chemical grade lactose combined with 2% Sipernat® 340 storage medium. After storage for either 4 days or 10 days, pollen was extracted from the stored anthers using the nylon pestle, and viability was determined using Amphasys.

[2] = Flowability / clumping observation of pollen-substance mixtures; format: physicochemical; conditions: 1:1 pollen to sugar, 4° C.
maize pollen [3] = test: Germination assay of stored maize pollen (pollen tube formation); format: cell-based; conditions: equal portion with pollen, 20 hours of storage at 4 degrees Celsius
Protocol: Casein and cellulose were both tested separately as possible substances for maintaining or increasing pollen viability. […] Freshly harvested maize pollen was harvested from actively shedding tassels. The pollen was divided into two equal portions, each of which was placed into a 50 ml centrifuge tube. […] Each tube was stored for 24 hours at 4 degrees Celsius. A germination assay was conducted after 24 hours. […] Sonneborn® PD-23 mineral oil was tested as a pollen separation agent. This substance was a liquid at all stages of the described experiment. Freshly harvested pollen from a bulk of maize plants was placed into mineral oil and stored at 4 degree Celsius for a period of 20 hours. After 20 hours, germination media was applied into the oil formulation. The results supported that liquid serves as a proficient storage media for pollen. […] This further supports the concept that separation of pollen grains increases viability.

flowability of pollen in sample [2]: slightly clumpy
Compound: OC[C@H]1O[C@@H](O[C@H]2[C@H](O)[C@@H](O)C(O)O[C@@H]2CO)[C@H](O)[C@@H](O)[C@H]1O (some centres unmarked) [lactose]
viability (maize pollen [1]; Day 8): 77%
Early Emergence Heads Viability (%) (wheat pollen; Day 3, stored whole at 5° C.): 28-41%
Post-emergence Heads Viability (%) (wheat pollen; Day 3, stored whole at 5° C.): 27-35%
Early Emergence Heads Viability (%) (wheat pollen; Day 14, stored whole at 5° C.): 39-44%
Post-emergence Heads Viability (%) (wheat pollen; Day 14, stored whole at 5° C.): 6-17%
Pollen Viability (%) (rice pollen; Day 4, anthers stored whole at 5° C.): 57-63%
Pollen Viability (%) (rice pollen; Day 10, anthers stored whole at 5° C.): 24-27%

Compound: OC[C@H]1O[C@H](O[C@H]2O[C@H](CO)[C@@H](O)[C@H](O)[C@H]2O)[C@H](O)[C@@H](O)[C@@H]1O [trehalose]
viability (maize pollen [1]; Day 2, compared to the other 3 samples): sharper decline
viability (maize pollen [1]; after 24 hours of storage, compared to the other samples): slight decline in viability

Compound: casein
viability (germination assay) (maize pollen [3]): largely, if not completely unviable; also recorded: little to no viability
